# Laboratory results published in patent publication US20050203187A1, “Formulations useful for the treatment of varicella zoster virus infections and methods for the use thereof” (priority 1998, published 2005).
# Entries after “also recorded” stand apart in the source; their conditions may differ. Read-outs that look alike come from different tables or passages of the source.
# Columns and labels:
# varicella zoster virus [1] = test: Shingles episode in a person; details: oral 400 mg 2×/day
# Varicella Zoster Virus [2] = test: Varicella zoster virus replication in cultures of human foreskin fibroblast cells; format: cell-based; details: for EC50: Human alphaherpesvirus 3, read-out: EC50 effective concentration required to inhibit viral replication by 50%; for EC50 / EC90: VZV in HFF cells; for EC90: Human alphaherpesvirus 3, read-out: EC90 effective concentration required to inhibit viral replication by 90%; for replication of varicella zoster virus in human cell cultures: statement in words
# Experimental: (§1) Human foreskin fibroblast (HFF) cells obtained from newborns were prepared and suspended in minimum essential medium (MEM) and supplemented with 10% fetal bovine serum (FBS). […] Drug concentrations were diluted six times from 100 μg/ml down to 0.03 μg/ml in MEM/FBS solution. A selective index of 10 is considered significant.
# [3] = Cytotoxicity in human foreskin fibroblast cells; format: cell-based
# Experimental: Human foreskin fibroblast (HFF) cells obtained from newborns were prepared and suspended in minimum essential medium (MEM) and supplemented with 10% fetal bovine serum (FBS). Freshly processed cells were incubated for 24 hours at 37° C. in well tissue culture plates in a CO2 incubator (E. R. Kern, J. Infect. Dis., 128:290 (1973)). Assays for cytotoxicity and varicella zoster virus replication were carried out in these culture wells following reported procedures (see, for example, R. J. Ryback and E. R. Kern et al, Antimicrobial Agents and Chemotherapy, 44:1506 (2000); Y. L. Qiu et al, J. Med. Chem., 41: 10 (1998); and Y. L. Qiu et al, J. Med. Chem., 41: 5257 (1998)). Drug concentrations were diluted six times from 100 μg/ml down to 0.03 μg/ml in MEM/FBS solution. A selective index of 10 is considered significant.
# herpes and other viruses = details: cited from earlier work
# herpes simplex virus-1 = details: rabbit kidney cell cultures; cited from earlier work
# Varicella zoster virus [4] = test: Varicella zoster virus replication in cultures of human foreskin fibroblast cells; format: cell-based; details: human; VZV in HFF cells; read-out: SI selective index of CC50/EC50
# Experimental: as §1
# [5] = Topical relief of muscle and joint pain in persons; format: in vivo, human; details: ibuprofen 5%, ketoprofen 3% (2-5%) in jojoba alcohol with 1% alpha-d-tocopherol, several drops
# Experimental: Some persons using these medications experience gastrointestinal side effects.
# (§2) The oil was tested on several persons for relief of minor muscle and joint pains.
# (§3) The oil was tested topically on several persons for relief of minor muscle and joint pains.
# herpes labialis (HSV-1) = details: 10% suspended in aqueous system with non-ionic surfactant and carrier; cited from earlier work
# [6] = test system: simian immunodeficiency virus (SIV); details: 12% cream, intravaginal application before exposure, six monkeys tested; cited from earlier work
# [7] = ibuprofen 5%, ketoprofen 3%, lactic acid 5%, testosterone 1% in jojoba alcohol; malic acid 0.8%, citric acid 0.5% lotion; Viracol A Plus one drop
# Experimental: Testosterone is a primary male hormone produced in the testes with effects on muscles, bones and sexual function. Testosterone replacement therapy for men with a deficiency, sometimes referred to as hypoganadism, is currently available in topical patches. […] This transdermal delivery technology can also be applied to corresponding estrogenic steroids such as estradiol for women.
# as §2, §3
# Malic Acid also known as hydroxysuccinic acid, occurs naturally in apples and is sometimes referred to as apple acid. It is used as a general purpose acidulent in food products.
# For the next 8 days […] spread 1-2 drops twice each day on the 2.5 inch diameter outbreak of small blisters on […] arm, and 4-6 drops twice each day on the blisters at […] waist.
structure (smiles),measurement,setting,value
"Nc1nc2c(ncn2COCCO)c(=O)[nH]1 [Acyclovir, reference compound]",side effects,varicella zoster virus [1],diarrhea and headache
same,change in shingles,varicella zoster virus [1]; after several days,no change
same,EC50,Varicella Zoster Virus [2],0.04 µg/mL
same,EC90,Varicella Zoster Virus [2],0.09 µg/mL
same,CC50,[3]; stationary HFF cells,> 100 µg/mL
O=C(O)CC(O)(CC(=O)O)C(=O)O [Citric Acid],viral replication inhibition activity in cell cultures,herpes and other viruses,viral replication inhibition activity
"O=C(O)/C=C/C(=O)O [Fumaric acid, trans 2-butenedioic acid]",viral replication inhibition activity in cell cultures,herpes and other viruses,viral replication inhibition
same,herpes simplex virus-1 replication,herpes simplex virus-1,inhibitors
same,EC50,Varicella Zoster Virus [2],0.15 µg/mL
same,EC90,Varicella Zoster Virus [2],0.6 µg/mL
same,replication of varicella zoster virus in human cell cultures,Varicella Zoster Virus [2],inhibit replication
same,selectivity ratio,Varicella zoster virus [4],> 666
same,CC50,[3],> 100 µg/mL
O=C(O)CO [Glycolic Acid],viral replication inhibition activity in cell cultures,herpes and other viruses,viral replication inhibition activity
"CC(C)Cc1ccc(C(C)C(=O)O)cc1 (stereo not drawn) [Ibuprofen, alpha-methyl-4(2-methylpropyl)benzeneacetic acid]",pain relief on topical application,[5],successfully relieved pain; also recorded: relieving pain
"CC(C(=O)O)c1cccc(C(=O)c2ccccc2)c1 (stereo not drawn) [Ketoprofen, 3-benzoyl-alpha-methylbenzeneacetic acid]",pain relief on topical application,[5],relieving pain
same,pain relief on topical application,[5]; listed as ketoprofen,successfully relieved pain
CC(O)C(=O)O (stereo not drawn) [Lactic Acid],viral replication inhibition activity in cell cultures,herpes and other viruses,viral replication inhibition activity
"O=C(O)CC(O)C(=O)O (stereo not drawn) [Malic Acid, hydroxysuccinic acid]",viral replication inhibition activity in cell cultures,herpes and other viruses,viral replication inhibition activity
"O=C(O)CC(=O)O [Malonic acid, propanedioic acid]",herpes simplex virus-1 replication,herpes simplex virus-1,inhibitors
same,EC50,Varicella Zoster Virus [2],< 0.03 µg/mL
same,EC90,Varicella Zoster Virus [2],< 0.03 µg/mL
same,replication of varicella zoster virus in human cell cultures,Varicella Zoster Virus [2],inhibit replication
same,selectivity ratio,Varicella zoster virus [4],> 3330
same,CC50,[3],> 100 µg/mL
"CC(=O)C(=O)O [Pyruvic acid, Pyruvic Acid]",viral replication inhibition activity in cell cultures,herpes and other viruses,viral replication inhibition activity
"O=C(O)CCC(=O)O [Succinic acid, Succinic Acid]",viral replication inhibition activity in cell cultures,herpes and other viruses,viral replication inhibition activity
"CCCCCCCCCCCCCCCCCCCCCCO [n-docosanol, n-Docosanol]",mean healing time of lesions,herpes labialis (HSV-1),shortened
same,monkeys in which transmission was prevented,[6],five
"C[C@]12CC[C@H]3[C@@H](CCC4=CC(=O)CC[C@@]43C)[C@@H]1CC[C@@H]2O [testosterone, Testosterone]","absorption into human skin, residue, irritation",[7],leaves no residue
